Source: BigSolDB 2.1

O=C(Nc1ccc(Cl)cc1)Nc1ccc(Cl)c(Cl)c1
solubility (mole fraction)
Settings | 288.15 K | 293.15 K | 298.15 K | 303.15 K | 308.15 K | 313.15 K | 318.15 K
in ethylene glycol | 4.25e-06 | 5.89e-06 | 8.3e-06 | 1.02e-05 | 1.38e-05 | 2.14e-05 | 2.64e-05
in water | 1.96e-09 | 2.38e-09 | 2.85e-09 | 3.78e-09 | 5.72e-09 | 7.48e-09 | 9.28e-09
